These results are taken from PMC12315900, “A twist in the tale: shifting from covalent targeting of a tyrosine in JAK3 to a lysine in MK2” (RSC Medicinal Chemistry, 2025).

Data set [1] deals with T1, JAK3 (Homo sapiens, UniProt P52333).
T1 sequence (P52333 1-1124): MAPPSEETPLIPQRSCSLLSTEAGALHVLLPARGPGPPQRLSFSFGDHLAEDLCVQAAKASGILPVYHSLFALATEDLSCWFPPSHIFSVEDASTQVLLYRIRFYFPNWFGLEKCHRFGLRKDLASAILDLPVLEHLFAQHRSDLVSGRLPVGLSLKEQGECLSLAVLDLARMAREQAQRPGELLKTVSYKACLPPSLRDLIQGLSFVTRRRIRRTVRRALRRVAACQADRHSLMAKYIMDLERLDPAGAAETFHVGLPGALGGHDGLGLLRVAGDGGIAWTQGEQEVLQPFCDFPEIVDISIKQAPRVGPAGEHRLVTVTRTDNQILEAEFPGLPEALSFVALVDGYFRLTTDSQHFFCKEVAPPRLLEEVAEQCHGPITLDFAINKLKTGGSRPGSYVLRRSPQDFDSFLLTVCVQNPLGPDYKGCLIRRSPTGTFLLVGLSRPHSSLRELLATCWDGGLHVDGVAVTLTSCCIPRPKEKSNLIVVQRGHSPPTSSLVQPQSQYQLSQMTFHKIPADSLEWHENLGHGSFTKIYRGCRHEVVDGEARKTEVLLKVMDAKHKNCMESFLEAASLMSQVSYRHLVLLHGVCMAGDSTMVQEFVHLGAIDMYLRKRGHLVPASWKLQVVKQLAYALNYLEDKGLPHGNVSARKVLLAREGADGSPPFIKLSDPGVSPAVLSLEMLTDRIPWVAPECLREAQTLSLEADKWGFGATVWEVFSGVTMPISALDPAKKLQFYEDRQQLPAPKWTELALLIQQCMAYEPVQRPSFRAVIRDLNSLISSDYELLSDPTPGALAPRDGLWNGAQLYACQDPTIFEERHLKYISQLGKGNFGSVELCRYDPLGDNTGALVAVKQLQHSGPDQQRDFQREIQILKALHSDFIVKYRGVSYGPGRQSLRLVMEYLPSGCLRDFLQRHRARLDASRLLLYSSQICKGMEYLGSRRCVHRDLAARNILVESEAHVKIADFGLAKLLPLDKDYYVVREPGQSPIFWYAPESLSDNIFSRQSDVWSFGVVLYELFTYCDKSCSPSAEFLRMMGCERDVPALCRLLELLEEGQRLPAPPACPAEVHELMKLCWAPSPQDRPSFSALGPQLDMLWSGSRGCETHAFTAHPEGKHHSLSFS
Kind of data set: biochemical.

Data set [2] is described as follows: solubility observation. The data set is classed as physicochemical. The source says:
While the warhead now cannot rotate away anymore, it also is very limited in the trajectory it can assume prior to/during the bond-forming event. On the other hand, the tyrosine side chain is also a rather rigid structure (especially considering the degrees of freedom of cysteine or e.g. lysine in comparison) and if two very rigid structures are supposed to react with each other, a proper pre-orientation and a binding mode that enables a strain-free reaction trajectory play a much bigger role than for the reaction of two more flexible moieties like, for example, acrylamide and cysteine.

The target of data set [3] is T1, JAK3. The note with it: JAK3 ELISA, same assay conditions (starting at 10 μM).
For data set [4], the system named is MK2. On the set-up: method as in PMID 24900358. The following applies: @100 μM ATP; cited from earlier work.
The target in data set [5] is MK2 (Homo sapiens, UniProt P49137). Kind of data set: biochemical.
Chain of MK2 (Homo sapiens, UniProt P49137) (P49137 whole entry): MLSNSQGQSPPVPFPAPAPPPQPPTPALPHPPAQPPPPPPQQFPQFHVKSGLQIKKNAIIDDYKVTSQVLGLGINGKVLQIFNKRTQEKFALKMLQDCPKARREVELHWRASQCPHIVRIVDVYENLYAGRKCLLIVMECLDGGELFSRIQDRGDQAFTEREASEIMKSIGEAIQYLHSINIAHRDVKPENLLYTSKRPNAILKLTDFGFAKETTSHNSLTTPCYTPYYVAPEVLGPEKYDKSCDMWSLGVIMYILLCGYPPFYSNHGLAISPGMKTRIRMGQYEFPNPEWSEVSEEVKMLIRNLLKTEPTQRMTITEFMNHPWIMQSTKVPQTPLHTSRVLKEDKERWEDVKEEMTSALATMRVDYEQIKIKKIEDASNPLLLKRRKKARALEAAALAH
Data set [6] deals with T2, MK2 (Homo sapiens, UniProt P49137, DEL216-236/P237G). Kind of data set: intact protein MS with MK2 (covalent modification). The following applies: for Ratio [%] (AUC[mod]/(AUC[unmod]+AUC[mod])): 50 µM protein, 250 µM compound, room temperature, 3 hours, relative quantification from deconvoluted spectra; for covalent modification of MK2 (covalent binding): 5-fold excess compound over MK2, rt, 3 h.
T2 sequence (P49137 with tags, fused parts or gaps DEL216-236/P237G): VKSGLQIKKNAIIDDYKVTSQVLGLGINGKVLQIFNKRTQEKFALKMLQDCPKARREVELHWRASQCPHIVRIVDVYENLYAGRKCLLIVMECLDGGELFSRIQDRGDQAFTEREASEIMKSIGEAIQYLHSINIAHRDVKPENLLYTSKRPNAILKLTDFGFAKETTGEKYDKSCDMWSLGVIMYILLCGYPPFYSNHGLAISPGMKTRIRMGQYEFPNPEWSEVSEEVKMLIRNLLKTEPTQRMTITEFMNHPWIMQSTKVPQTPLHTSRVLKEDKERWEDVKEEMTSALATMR
Method: using a NanoDrop 2000 spectrophotometer (Thermo Scientific), with molar extinction coefficient
and molecular weight specified using the "other protein (E & MW)" setting.
at 4 °C for 24 hours. For the negative control, an equivalent volume of DMSO was added to the
protein solution. To quench the reaction, 0.1% formic acid in the double-distilled water (ddH₂O)
was added in a 1:10 ratio (v/v), followed by desalting of the samples using C8 stage tips with the
MS data acquisition was carried out on a Time-of-Flight (TOF)
LC/MS system (Agilent 6200 series) equipped with a positive electrospray ionization (ESI) source.
A volume of 5 µL of the desalted sample was injected for mass spectrometry (MS) analysis. To
prevent cross-sample contamination, blank injections were run between each sample. Data were
deconvoluted and analyzed using Agilent’s MassHunter Bioconfirm software, applying a scan
range of 600–2000 m/z, a mass range of 10–100 kDa, a mass step of 1 Da, and a baseline
at room temperature for 3 hours. For the negative control, an equivalent volume of DMSO was
added to the protein solution. To quench the reaction, 0.1% formic acid in the double -distilled
water (ddH₂O) was added in a 1:10 ratio (v/v), followed by desalting of the samples using C8 stage
The UHPLC-system consisted of an Agilent
(G1316C) and a valve drive (G1170A) equipped with a 2-pos 6-port valve for online desalting of the
samples. Mobile phase A (water + 0.1 % (v/v) formic acid) and mobile phase B (acetonitrile + 0.1
% (v/v) formic acid) were used for gradient elution on a BIOshell Protein C4 HPLC column (5 cm x
2.1 mm, 3.4 μm, 400 Å; Merck, Darmstadt, Germany). The flow rate was set to 1.0 mL/min with
the following gradient settings: 0−0.2 min: 10 % B, 0.2−2.2 min: 10−80 % B, 2.2−3 min: 80 % B,
whole analysis. The UHPLC-system was coupled to a TripleTOF 5600+ mass spectrometer from
Sciex (Darmstadt, Germany) using a Duospray ion source in positiveionization mode and the
following source and MS parameters: curtain gas (CUR): 30 psi, nebulizing gas (GS1): 50 psi,
heater gas (GS2): 40 psi, ion spray floating voltage (ISVF): 5500 V, source temperature (TEM): 450
°C, collision energy (CE): 30 V, declustering potential (DP): 230 V. The acquisition was performed
in the TOF mode of the mass spectrometer using a mass range from 100 to 5000 m/z with an
accumulation time of 100 ms. Moreover, the IntactProteinMode -script from Sciex was used to
optimize MS settings for protein analysis. The Analyst TF 1.8.1 software and the PeakView
software 2.2.0 (both Sciex) were used for data acquisition and data analysis, respectively. Mass
spectra were deconvoluted using the BioToolKit 2.2.0 software package.
Relative quantification was performed with the area under curve (AUC) of each protein species in
the deconvoluted mass spectra with the PeakView software’s integration tool.
𝑅𝑎𝑡𝑖𝑜 [%] = 𝐴𝑈𝐶[𝑚𝑜𝑑] × 100

Data set [7] concerns the target T2, MK2. Kind of data set: kinact/KI from time- and concentration-dependent intact protein MS.
Method: Determination of Kinetic Parameters
kinact/KI was measured based on time- and concentration-dependent analysis of intact protein
mass spectra using the bimolecular model described by the equations seen below, as reported
[PI]: concentration of the protein-compound complex, [PI*]: concentration
of the covalent protein-compound complex, [PI*] ≈ [PI] if kinact is relatively high. [P]0, [I]0:
concentration of initial protein and compound. t: incubation time(s).
When reaching each time point of incubation
(15 min, 30 min, 60 min, 120 min, 180 min), an aliquot of the reaction mixture was transferred into
1 % formic acid in ddH2O using a multichannel pipette (10 µL of sample added to 90 µL
ddH2O/1% formic acid), to stop the reaction at the exact time point. MS was performed and %
occupancy was calculated in the same way (see equations below).
time- and concentration -dependent % occupancy: import data as XY table. A nonlinear
regression fit was chosen to fit the curves, kinact/KI was set up as the constraint type of “Shared
value for all datasets”, initial value as 0, the rest settings are as default.
𝑂𝑐𝑐𝑢𝑝𝑎𝑛𝑐𝑦 [%] = 𝐼𝑚𝑜𝑑 × 100
[𝑃𝐼 ] = [𝑃]0[𝐼]0 ([𝑃] −[𝐼] )×𝑘 /𝐾 ×𝑡
𝑂𝑐𝑐𝑢𝑝𝑎𝑛𝑐𝑦 [%] = [𝑃𝐼] × 100
The nature of data set [8]: buffer stability at pH 7.4 (HPLC). The note with it: pH 7.4, over the incubation time. The data set is classed as physicochemical.

One may read the IC50 as the midpoint of a concentration-inhibition curve. As for `N#Cc1cccc(-c2cn(C3CCCCC3)c3c2cnc2[nH]ccc23)c1` [compound 6], the half-inhibitory concentration (IC50) in data set [1] was 5.2 nM. In the case of `O=c1c2cc(OS(=O)(=O)F)ccc2c2cnc3[nH]ccc3c2n1C1CCCCC1` [compound 35], the solubility result in data set [2] was “low solubility”. In addition, the inhibitory activity result in data set [3] is reported as “no relevant inhibitory activity”. Regarding `O=C(c1ccc(-c2ccc(Cl)cc2)o1)N(Cc1ccccn1)c1ccc(N2CCNCC2)cc1` [compound 41, reference compound], the IC50 was 110 nM in data set [4] and over 5000 nM in data set [5]. One may read the kinact/KI as the second-order rate constant of inactivation. For the compound `O=C(c1ccc(-c2ccc(Cl)c(OS(=O)(=O)F)c2)o1)N(Cc1ccccn1)c1ccc(N2CCNCC2)cc1` [compound 42], in data set [6], the “Ratio [%] (AUC[mod]/(AUC[unmod]+AUC[mod]))” value is recorded as 94.28% and the “covalent modification of MK2 (covalent binding)” value (“covalent modification of MK2” below) was determined as 95%. Besides, the inactivation efficiency (kinact/KI) in data set [7] came out at 1.12 M⁻¹ s⁻¹. On to `O=C(c1ccc(-c2ccc(Cl)cc2)o1)N(Cc1ccccn1)c1ccc(N2CCNCC2)c(OS(=O)(=O)F)c1` [compound 43], for which the “covalent modification of MK2” value in data set [6] was “no binding at all”. Regarding `CC(C)(C)OC(=O)N1CCN(c2ccc(NC(=O)c3ccc(-c4ccc(Cl)cc4)o3)cc2S(=O)(=O)F)CC1` [compound 64], the “covalent modification of MK2” value in data set [6] came out at 15%. Moreover, in data set [8], the buffer stability result is recorded as “some degradation”. Regarding `O=C(c1ccc(-c2ccc(Cl)cc2)o1)N(Cc1ccccn1)c1ccc(N2CCNCC2)c(S(=O)(=O)F)c1` [compound 65], in data set [6], the “Ratio [%] (AUC[mod]/(AUC[unmod]+AUC[mod]))” value is on record as 14.51% and the “covalent modification of MK2” value is 15%. Regarding `O=C(c1ccc(-c2ccc(Cl)c(O)c2)o1)N(Cc1ccccn1)c1ccc(N2CCNCC2)cc1` [compound 66], in data set [5], the IC50 was over 5000 nM. Turning to `O=C(c1ccc(-c2ccc(Cl)cc2)o1)N(Cc1ccccn1)c1ccc(N2CCNCC2)c(O)c1` [compound 67], in data set [5], the IC50 is over 5000 nM.
